# System: 6-OHDA lesioned mice
# Assay: Unilateral striatal 6-OHDA mouse model, neurorestoration experiment (behaviour and post-mortem)
# Type: in vivo, C57BL/6 mice
# Experimental: Young adult (9-week old, 25 grams) male C57BL/6 mice were purchased from Charles River Laboratories (Montréal, QC, Canada). Animals were housed 4 per cage under standard conditions with free access to food and water, randomized and handled under the same conditions by one investigator. All experiments were performed in accordance with the Canadian Council on Animal Care and were approved by the Institutional Committee of the Centre Hospitalier de l'Université Laval (CHUL). Throughout the experiment, the health status of all mice included in the study was closely monitored for weight loss or other signs of health-related issues. All efforts were made to minimize animal pain and discomfort.
# This protocol was based on the unilateral stereotaxic intra-striatal injection of 6-hydroxydopamine (6-OHDA). Intrastriatal administration of 6-OHDA creates a progressive and retrograde degenerative changes in DA neurons of the substantia nigra (Bjorklund et al., 1997; Costantini et al., 2001). Mice were anaesthetized using isoflurane and placed onto a stereotactic frame adapted for mice. 6-OHDA was dissolved at a concentration of 2 μg/μl in 0.9% saline and 0.02% ascorbic acid and 2 μl was injected in the right striatum at a rate of 0.5 μl/min. The needle was left in place for 3 min after the injection before retraction. The injection was performed using an Hamilton syringe according to the stereotaxic co-ordinates: AP: +0.04 cm, ML: −0.18 cm, DV: −0.31 cm (corresponding to the atlas of Allan P. 2008).
# To serve as controls, other mice were subjected to the same surgical procedures, but only 2 μl of solvent (0.9% saline and 0.02% ascorbic acid) was injected in the same coordinates. The study was further divided into 2 distinct experiments: • 1) The neurorescuing effects of cystamine (cystamine dihydrochloride, Sigma, St. Louis, Mo.) in 6-OHDA leisoned mice. For this experiment, the first i.p. injection of 10 mg/kg cystamine was administered 3 days post surgery and the treatment continued daily for 14 days. • 2) The neurorestorative effects of cystamine (cystamine dihydrochloride, Sigma, St. Louis, Mo.) in 6-OHDA lesioned mice. The treatment of cystamine began 3 weeks post surgery, when the dopaminergic (DAergic) lesion is known to be stable and has reached its peak. The treatment was continued daily for 6 weeks.
# The effects of cystamine on the 6-OHDA toxicity were studied in the following experimental groups: Group I, Sham+Saline; Group II, 6-OHDA+Saline; Group III; Sham+Cystamine; Group IV, 6-OHDA+Cystamine. In total, 40 mice (n=10 per group) were utilized for each experiment, monitored daily for weight variation, and ultimately sacrificed by perfusion 24 hrs after the last cystamine (or vehicle) injection.
# Animals were sacrificed under deep anesthesia with ketamine/xylazine (Vetalar, Bioniche, Belleville, ON/Rompun, Bayer, Toronto, ON). All mice were subjected to intracardiac perfusion with RNAse free 0.1 M phosphate-buffered saline (PBS). After intracardiac perfusion, brains were collected and the posterior brain of each mice, comprising the entire mesencephalon, was post-fixed in 4% PFA for additional immunohistochemistry and in situ hybridization analyses. The anterior brain, comprising the right and left striatum, was snap-frozen and used for HPLC and WB analyses.
# Catecholamine quantification by HPLC, TH immunohistochemistry and in situ hybridization for Nurr1 and DAT were conducted as described in Example 1.
# The loss of DAergic neurons was determined by stereological counts of TH-immunoreactive cells (identifiable somas) under bright-field illumination. Every 10th section through the SNc was analyzed using Stereo investigator software (MicroBrighffield, Colchester, Vt., USA) attached to an E800 Nikon microscope (Nikon Canada Inc., Mississauga, ON, Canada). After delineation of the SNc at low magnification (4× objective), a point grid was overlaid onto each section. […]
smiles,measurement,setting,value
"NCCSSCCN [cystamine, Cystamine]",restoration of DA content in the lesioned striatum,10 mg/kg daily for 6 weeks from 3 weeks post-lesion,did not significantly restore DA content
same,"cylinder test, limb-use asymmetry (percentage of contralateral contacts)","10 mg/kg daily for 6 weeks from 3 weeks post-lesion, 6 and 9 weeks post-lesion",asymmetry was not visible
same,apomorphine-induced contralateral rotations,"10 mg/kg daily for 6 weeks from 3 weeks post-lesion, 6 and 9 weeks post-surgery",significantly attenuated by the cystamine treatment
same,decrease of striatal DA levels measured by HPLC,"6-OHDA lesioned mice, 10 mg/kg daily for 6 weeks from 3 weeks post-lesion",84%
same,decrease in the total number of TH-positive neurons in the SNpc,"6-OHDA+cystamine vs sham+cystamine, 10 mg/kg daily for 6 weeks from 3 weeks post-lesion",65%
same,DA turnover,vs 6-OHDA mice treated with saline,strong tendency to normalise the DA turnover

# From patent US20140073694A1, “CYSTAMINE ANALOGUES FOR THE TREATMENT OF PARKINSON'S DISEASE” (UNIVERSITE LAVAL, priority 2011, published 2014)
